For 1 compound, calcium response results are on record in PMC2099433, “The binding site for neohesperidin dihydrochalcone at the human sweet taste receptor” (BMC Structural Biology, 2007).

Assay [1] addresses T1, rat Tas1r3 and human TAS1R2 (opposite combination) (Rattus norvegicus, UniProt Q923K1).
T1 construct: expressed in transfected cells; host or cells: HEK293T cells stably expressing G16Gust44
Nature of the assay: Calcium response, opposite interspecies subunit combination. It counts as cell-based. The following applies: 1 mM NHDC. From the text: In order to elucidate the putative binding site for NHDC, we cotransfected mixtures of plasmid DNAs for the rat and human TAS1R2 and TAS1R3 receptor subunits in HEK293T cells stably expressing the chimeric G-protein G16Gust44 and measured cellular calcium responses by fluorometry following bath application of various sweet tasting compounds.
Figure 1 Chemical structure and calcium responses elicited by neohesperidin dihydrochalcone. (A) Structure of neohesperidin dihydrochalcone. Numbers denote carbon atom positions. […]
(§1) The cDNAs for TAS1Rs tagged at the C-terminus with the herpes simplex virus glycoprotein D (HSV) were transiently transfected into HEK293T cells stably expressing the chimeric G-protein subunit G16Gust44 [44] using Lipofectamine 2000 (Invitrogen, Carlsbad, CA) according to the manufacturer's protocol. […] We monitored calcium mobilization following receptor stimulation with sweet tastants by an automated fluorometric imaging plate reader (FLIPR, Molecular Devices, Sunnyvale, CA). […] The obtained calcium signals were corrected for the response of mock transfected cells and normalized to the fluorescence of cells prior to the application of the stimulus using ΔF/F = (F-F0)/F0. Concentration-response curves and EC50 and IC50 values were calculated in SigmaPlot by nonlinear regression using the function f = ((a-d)/(1+(x/EC50)^nH)+d) and f = (a-b)/[1+(x/IC50)^nH]+b, respectively.

The subject of assay [2] is receptors that contain the entire rat Tas1r3 or its heptahelical domain. Nature of the assay: Calcium response, receptors and chimeras with rat Tas1r3 heptahelical domain. The following applies: 1 mM NHDC. It counts as cell-based, human.
Text: In order to elucidate the putative binding site for NHDC, we cotransfected mixtures of plasmid DNAs for the rat and human TAS1R2 and TAS1R3 receptor subunits in HEK293T cells stably expressing the chimeric G-protein G16Gust44 and measured cellular calcium responses by fluorometry following bath application of various sweet tasting compounds. […].
Figure 1 Chemical structure and calcium responses elicited by neohesperidin dihydrochalcone. (A) Structure of neohesperidin dihydrochalcone. Numbers denote carbon atom positions. (B) Representative calcium traces elicited upon stimulation with different concentrations of neohesperidin dihydrochalcone (NHDC) in HEK293T-G16Gust44 cells cotransfected with DNA for hTAS1R2/hTAS1R3. […]
as §1, with “Concentration-response curves and EC50 and IC50 values were calculated in SigmaPlot by nonlinear regression using the function f = ((a-d)/(1+(x/EC50)^nH)+d) and f = (a-b)/[1+(x/IC50)^nH]+b, respectively.” left out

T1 sequence (Q923K1 21-858): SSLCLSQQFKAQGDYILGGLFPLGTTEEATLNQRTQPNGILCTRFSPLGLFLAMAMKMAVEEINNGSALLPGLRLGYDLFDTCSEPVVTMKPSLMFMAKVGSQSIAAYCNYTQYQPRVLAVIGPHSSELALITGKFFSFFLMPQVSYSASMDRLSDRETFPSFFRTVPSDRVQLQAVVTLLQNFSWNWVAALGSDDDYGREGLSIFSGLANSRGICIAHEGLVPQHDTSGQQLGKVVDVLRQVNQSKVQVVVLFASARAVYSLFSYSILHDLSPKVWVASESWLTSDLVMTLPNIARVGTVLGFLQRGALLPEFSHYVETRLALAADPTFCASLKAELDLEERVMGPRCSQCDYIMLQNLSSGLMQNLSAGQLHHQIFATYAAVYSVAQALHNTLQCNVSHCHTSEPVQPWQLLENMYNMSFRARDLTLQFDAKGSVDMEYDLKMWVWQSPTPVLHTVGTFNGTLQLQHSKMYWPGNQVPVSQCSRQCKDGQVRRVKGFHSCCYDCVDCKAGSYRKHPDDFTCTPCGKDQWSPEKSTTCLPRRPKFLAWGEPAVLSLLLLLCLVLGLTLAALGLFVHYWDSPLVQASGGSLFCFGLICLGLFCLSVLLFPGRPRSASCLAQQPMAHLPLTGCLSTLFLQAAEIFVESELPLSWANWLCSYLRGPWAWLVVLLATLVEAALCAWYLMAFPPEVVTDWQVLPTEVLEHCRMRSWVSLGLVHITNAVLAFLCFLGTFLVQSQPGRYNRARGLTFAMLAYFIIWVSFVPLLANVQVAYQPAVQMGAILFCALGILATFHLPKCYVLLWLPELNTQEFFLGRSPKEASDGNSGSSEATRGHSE
T1 sequence (Q8TE23 20-839 partner): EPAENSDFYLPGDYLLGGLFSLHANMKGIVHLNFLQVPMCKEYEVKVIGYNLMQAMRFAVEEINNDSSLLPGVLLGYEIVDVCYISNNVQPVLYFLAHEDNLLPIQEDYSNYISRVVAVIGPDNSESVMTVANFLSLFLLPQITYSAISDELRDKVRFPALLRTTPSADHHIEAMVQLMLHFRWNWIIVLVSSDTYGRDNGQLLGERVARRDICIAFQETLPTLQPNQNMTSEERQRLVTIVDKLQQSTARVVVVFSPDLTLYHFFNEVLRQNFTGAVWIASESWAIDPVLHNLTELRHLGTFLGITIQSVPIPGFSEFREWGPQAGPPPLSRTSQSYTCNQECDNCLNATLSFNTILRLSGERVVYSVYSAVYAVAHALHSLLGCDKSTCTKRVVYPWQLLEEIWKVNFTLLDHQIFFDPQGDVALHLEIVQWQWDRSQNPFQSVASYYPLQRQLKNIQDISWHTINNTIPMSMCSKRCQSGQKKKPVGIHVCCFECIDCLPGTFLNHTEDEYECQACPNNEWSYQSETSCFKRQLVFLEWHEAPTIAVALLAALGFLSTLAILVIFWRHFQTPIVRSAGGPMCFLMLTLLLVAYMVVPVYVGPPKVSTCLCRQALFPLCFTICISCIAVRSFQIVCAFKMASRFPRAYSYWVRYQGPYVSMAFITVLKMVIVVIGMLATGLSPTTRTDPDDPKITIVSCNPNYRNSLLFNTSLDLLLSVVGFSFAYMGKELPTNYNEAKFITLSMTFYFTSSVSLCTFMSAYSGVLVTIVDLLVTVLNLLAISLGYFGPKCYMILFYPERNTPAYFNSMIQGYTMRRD

As to `COc1ccc(CCC(=O)c2c(O)cc(O[C@@H]3O[C@H](CO)[C@@H](O)[C@H](O)[C@H]3O[C@@H]3O[C@@H](C)[C@H](O)[C@@H](O)[C@H]3O)cc2O)cc1O` [NHDC, neohesperidin dihydrochalcone], the results for the calcium response entry in assay [1] and in assay [2] were “did not” and “did not respond to NHDC”, respectively.
